Structures are written as SMILES.

The record followed here is patent publication US6861419B2, “Substituted 1, 4-thiazepine and analogs as activators of caspases and inducers of apoptosis and the use thereof” (Cytovia, Inc., priority 2000, dated 2005).

One experiment concerns T-47D. Kind of experiment: Caspase cascade activation (N-(Ac-DEVD)-N'-ethoxycarbonyl-R110 fluorogenic substrate) in T-47D cells. The format is cell-based. The note with it: T47D; human breast cancer cell line T-47D, 24 hours incubation with compound, 3 hour substrate incubation; read-out: Caspase Potency EC50 (nM) T-47D. As for the experimental part:
(§1) Human breast cancer cell lines T-47D and ZR-75-1 were grown according to media component mixtures designated by American Type Culture Collection +10% fetal calf sera (FCS) (Life Technologies, Inc.) in a 5% CO2-95% humidity incubator as 37° C. The T-47 and ZR-75-1 cells were maintained at a cell density between 30 and 80% confluency at a cell density of 0.1 to 0.6×10^6 cells/mL. Cells were harvested at 600 xg and resuspended at 0.65×10^6 cells/mL into appropriate media +10% FCS. An aliquot of 45 μL of cells was added to a well of a 96-well microtiter plate containing 5 μL of a 10% DMSO in RPMI-1640 media solution containing 1.6 to 100 μM of test compound (0.16 to 10 μM final).
(§2) An aliquot of 45 μL of cells was added to a well of a 96-well microtiter plate containing 5 μL of a 10% DMSO in RPMI-1640 media solution without test compound as the control sample. The samples were mixed by agitation and then incubated at 37° C. for 24 hours in a 5% CO2-95% humidity incubator. After incubation, the samples were removed from the incubator and 50 μL of a solution w containing […] of N-(Ac-DEVD)-N′-ethoxycarbonyl-R110 (SEQ ID NO:1) fluorogenic substrate (Cytovia, Inc.; WO99/18856), 20% sucrose (Sigma), 20 mM dithiothreitol (DTT) (Sigma), 200 mM NaCl (Sigma), 40 mM Na piperazine-N,N′-bis[2-ethanesulfonic acid] (PIPES) buffer pH 7.2 (Sigma), and 500 μg/mL lysolecithin (Calbiochem) was added. The samples were mixed by agitation and incubated at room temperature. Using a fluorescent plate reader (Model 1420 Wallac Instruments), an initial reading (T=0) was made approximately 1-2 minutes after addition of the substrate solution, employing excitation at 485 nm and emission at 530 nm, to determine the background fluorescence of the control sample. After the 3 hour incubation, the samples were read for fluorescence as above (T=3 hours).
(§3) The Relative Fluorescence Unit (RFU) values were used to calculate the sample readings as follows: RFU(T=3h)−Control RFU(T=0)=Net RFU(T=3h)
(§4) The level of caspase cascade activation was determined by the ratio of the net RFU value for the test compound to that of the control samples. The EC50 (nM) was determined by a sigmoidal dose-response calculation (Prism 2.0, GraphPad Software, Inc.). The compounds of the invention were determined to have caspase cascade activating effects by proceeding as in Example 8.

Another experiment has as its system ZR-75-1. As to the kind of experiment: Caspase cascade activation (N-(Ac-DEVD)-N'-ethoxycarbonyl-R110 fluorogenic substrate) in ZR-75-1 cells. The format is cell-based. The note with it: human breast cancer cell line ZR-75-1, 24 hours incubation with compound, 3 hour substrate incubation; read-out: Caspase Potency EC50 (nM) ZR-75-1. As for the experimental part:
as §1, §2, §3, §4

In the case of `Cc1cc(O)c(C2=NCCSC(c3ccccc3Br)C2)c(=O)o1` (stereo not shown) [Compound 74, 3-[7-(2-bromo-phenyl)-2,3,6,7-tetrahydro-[1,4]thiazepin-5-yl]4-hydroxy-6-methyl-pyran-2-one], the EC50 in the experiment with T-47D was found to be 3270 nM; with ZR-75-1 it was 2080 nM.
As for `Cc1ccc(C2CC(c3c(O)cc(C)oc3=O)=Nc3ccccc3S2)cc1` (stereo not shown) [Compound 85, 4-hydroxy-6-methyl-3-(2-p-tolyl-2,3-dihydro-benzo[b][1,4]thiazepin-4-yl)-pyran-2-one], the figures for the EC50 in the experiment with T-47D and in the experiment on ZR-75-1 were 6930 nM and 4210 nM, respectively.
For `Cc1cc(O)c(C2=NCCSC(c3ccc(Cl)c(Cl)c3)C2)c(=O)o1` (stereo not shown) [Compound 79, 3-[7-(3,4-dichloro-phenyl)-2,3,6,7-tetrahydro-[1,4]thiazepin-5-yl]-4-hydroxy-6-methyl-pyran-2-one], the EC50 with T-47D amounted to 557 nM; in the experiment on ZR-75-1, 349 nM.
Turning to `CSc1ccc(C2CC(c3c(O)cc(C)oc3=O)=NCCS2)cc1` (stereo not shown) [Compound 70, 4-hydroxy-6-methyl-3-[7-(4-methylsulfanyl-phenyl)-2,3,6,7-tetrahydro-[1,4]thiazepin-5-yl]-pyran-2-one], the EC50 with T-47D worked out at 345 nM; in the experiment with ZR-75-1, 163 nM.
Taken in the same sequence, the figures for `COc1cccc(C2CC(c3c(O)cc(C)oc3=O)=NCCS2)c1` (stereo not shown) [Compound 72, 4-hydroxy-3-[7-(3-methoxy-phenyl)-2,3,6,7-tetrahydro-[1,4]thiazepin-5-yl]-6-methyl-pyran-2-one] were 3050 nM and 1950 nM.
